In patent US20100028889A1, “COMPANION DIAGNOSTIC ASSAYS FOR CANCER THERAPY” (ABBOTT LABORATORIES, priority 2006, published 2010):

Experiments:
Assay in all cases: sensitivity of leukemia/lymphoma cell line, 5 uM cut-off
Format in all cases: cell-based
MEG-01 = settings: Homo sapiens, read-out: sensitivity class by EC50
Protocol: (§1) The following SCLC cell lines were obtained from ATCC (Manassis, Va.): NCI-H889, NCI-H1963, NCI-H1417, NCI-H146, NCI-H187, DMS53, NCI-H510, NCI-H209, NCI-H211, NCI-H345, NCI-H524, NCI-H69, DMS79, SHP77, NCI-H1688, NCI-H446, NCI-H740, NCI-H1048, NCI-H82, NCI-H196, SW1271, H69AR, NCI-H526, NCI-H865, NCI-H748, NCI-H711, and DMS114. All cells were cultured in the ATCC recommended media at 37° C. in a humidified atmosphere containing 5% CO2. The following leukemia and lymphoma cell lines were obtained from ATCC (Manassis, Va.): MV-4-11, RS4;11, Loucy, KG-1A, DOHH2, Rs11380, CCRF-HSB-2, CCRF-CEM, CEM/C1, Reh, SUP-B15, MOLT-4, SUDHL4, HL-60, RPMI 8226, A3, Daudi, WSU-NHL, Pfeiffer, Jurkat I 9.2, Jurkat, MEG-01, U-937, K-562, and Raji.
(§2) The 25 leukemia/lymphoma cell lines were also tested for sensitivity to ABT-737 using the 5 uM cut-off, and sensitive cell lines were MV-4-11, RS4;11, Loucy, KG-1A, DOHH2, Rs11380, CCRF-HSB-2, CCRF-CEM, CEM/C1, Reh, SUP-B15, MOLT-4, SUDHL4, HL-60, RPMI 8226, A3, Daudi, WSU-NHL, Pfeiffer, and Jurkat I 9.2, and the resistant cell lines Jurkat, MEG-01, U-937, K-562, and Raji.
as §2, with “ABT-263” for “ABT-737”

Jurkat = settings: Homo sapiens, read-out: sensitivity class by EC50
Protocol: as §1, §2
as §2, with “ABT-263” for “ABT-737”

A3 = settings: Homo sapiens, read-out: sensitivity class by EC50
Protocol: as §1, §2
as §2, with “ABT-263” for “ABT-737”

DOHH2 = settings: Homo sapiens, DOHH-2, read-out: sensitivity class by EC50
Protocol: as §1, §2
as §2, with “ABT-263” for “ABT-737”

CCRF-HSB-2 = settings: Homo sapiens, read-out: sensitivity class by EC50
Protocol: as §1, §2
as §2, with “ABT-263” for “ABT-737”

U-937 = settings: Homo sapiens, read-out: sensitivity class by EC50
Protocol: as §1, §2
as §2, with “ABT-263” for “ABT-737”

MV-4-11 = settings: Homo sapiens, MV4-11, read-out: sensitivity class by EC50
Protocol: as §1, §2
as §2, with “ABT-263” for “ABT-737”

Daudi = settings: Homo sapiens, read-out: sensitivity class by EC50
Protocol: as §1, §2
as §2, with “ABT-263” for “ABT-737”

Jurkat I 9.2 = settings: Homo sapiens, read-out: sensitivity class by EC50
Protocol: as §1, §2
as §2, with “ABT-263” for “ABT-737”

Loucy = settings: Homo sapiens, read-out: sensitivity class by EC50
Protocol: as §1, §2
as §2, with “ABT-263” for “ABT-737”

KG-1A = settings: Homo sapiens, read-out: sensitivity class by EC50
Protocol: as §1, §2
as §2, with “ABT-263” for “ABT-737”

RPMI 8226 = settings: Homo sapiens, read-out: sensitivity class by EC50
Protocol: as §1, §2
as §2, with “ABT-263” for “ABT-737”

Raji = settings: Homo sapiens, read-out: sensitivity class by EC50
Protocol: as §1, §2
as §2, with “ABT-263” for “ABT-737”

SUP-B15 = settings: Homo sapiens, read-out: sensitivity class by EC50
Protocol: as §1, §2
as §2, with “ABT-263” for “ABT-737”

Rs11380 = settings: Homo sapiens, read-out: sensitivity class by EC50
Protocol: as §1, §2
as §2, with “ABT-263” for “ABT-737”

CCRF-CEM = settings: Homo sapiens, read-out: sensitivity class by EC50
Protocol: as §1, §2
as §2, with “ABT-263” for “ABT-737”

SUDHL4 = settings: Homo sapiens, SU-DHL-4, read-out: sensitivity class by EC50
Protocol: as §1, §2
as §2, with “ABT-263” for “ABT-737”

Pfeiffer = settings: Homo sapiens, read-out: sensitivity class by EC50
Protocol: as §1, §2
as §2, with “ABT-263” for “ABT-737”

HL-60 = settings: Homo sapiens, read-out: sensitivity class by EC50
Protocol: as §1, §2
as §2, with “ABT-263” for “ABT-737”

CEM/C1 = settings: Homo sapiens, read-out: sensitivity class by EC50
Protocol: as §1, §2
as §2, with “ABT-263” for “ABT-737”

RS4;11 = settings: Homo sapiens, read-out: sensitivity class by EC50
Protocol: as §1, §2
as §2, with “ABT-263” for “ABT-737”

Reh = settings: Homo sapiens, read-out: sensitivity class by EC50
Protocol: as §1, §2
as §2, with “ABT-263” for “ABT-737”

WSU-NHL = settings: Homo sapiens, read-out: sensitivity class by EC50
Protocol: as §1, §2
as §2, with “ABT-263” for “ABT-737”

MOLT-4 = settings: Homo sapiens, read-out: sensitivity class by EC50
Protocol: as §1, §2
as §2, with “ABT-263” for “ABT-737”

K-562 = settings: Homo sapiens, K562, read-out: sensitivity class by EC50
Protocol: as §1, §2
as §2, with “ABT-263” for “ABT-737”

Row | SMILES | EC50 (MEG-01) [µM] | EC50 (Jurkat) [µM] | EC50 (A3) [µM] | EC50 (DOHH2) [µM] | EC50 (CCRF-HSB-2) [µM] | EC50 (U-937) [µM] | EC50 (MV-4-11) [µM] | EC50 (Daudi) [µM] | EC50 (Jurkat I 9.2) [µM] | EC50 (Loucy) [µM] | EC50 (KG-1A) [µM] | EC50 (RPMI 8226) [µM] | EC50 (Raji) [µM] | EC50 (SUP-B15) [µM] | EC50 (Rs11380) [µM] | EC50 (CCRF-CEM) [µM] | EC50 (SUDHL4) [µM] | EC50 (Pfeiffer) [µM] | EC50 (HL-60) [µM] | EC50 (CEM/C1) [µM] | also measured
1 | CC1(C)CCC(c2ccc(Cl)cc2)=C(CN2CCN(c3ccc(C(=O)NS(=O)(=O)c4ccc(N[C@H](CCN5CCOCC5)CSc5ccccc5)c(S(=O)(=O)C(F)(F)F)c4)cc3)CC2)C1 [ABT-263, N-(4-(4-((2-(4-chlorophenyl)-5,5-dimethyl-1-cyclohex-1-en-1-yl)methyl)piperazin-1-yl)benzoyl)-4-(((1R)-3-(morpholin-4-yl)-1-((phenylsulfanyl)methyl)propyl)amino)-3-((trifluoromethyl)sulfonyl)benzenesulfonamide] | > 5 | > 5 | < 5 | < 5 | < 5 | > 5 | < 5 | < 5 | < 5 | < 5 | < 5 | < 5 | > 5 | < 5 | < 5 | < 5 | < 5 | < 5 | < 5 | < 5 | EC50 (RS4;11): < 5 µM; EC50 (Reh): < 5 µM; EC50 (WSU-NHL): < 5 µM; EC50 (MOLT-4): < 5 µM; EC50 (K-562): > 5 µM
2 | CN(C)CC[C@H](CSc1ccccc1)Nc1ccc(S(=O)(=O)NC(=O)c2ccc(N3CCN(Cc4ccccc4-c4ccc(Cl)cc4)CC3)cc2)cc1[N+](=O)[O-] [ABT-737, N-(4-(4-((4′-chloro(1,1′-biphenyl)-2-yl)methyl)piperazin-1-yl)benzoyl)-4-(((1R)-3-(dimethylamino)-1-((phenylsulfanyl)methyl)propyl)amino)-3-nitrobenzenesulfonamide] | > 5 | > 5 | < 5 | < 5 | < 5 | > 5 | < 5 | < 5 | < 5 | < 5 | < 5 | < 5 | > 5 | < 5 | < 5 | < 5 | < 5 | < 5 | < 5 | < 5 | EC50 (RS4;11): < 5 µM; EC50 (Reh): < 5 µM; EC50 (WSU-NHL): < 5 µM; EC50 (MOLT-4): < 5 µM; EC50 (K-562): > 5 µM
